The results in this text go back to the supplement of paper PMC10307832.

Common to all, as to assay: relative viability (nuclei count vs DMSO), 5 days (fraction); higher = more cells survive
Compound in assay [1]: O=C1NC(=O)[C@@H](c2cn3c4c(cccc24)CCC3)[C@@H]1c1c[nH]c2ccccc12 [Tivantinib] + CCNC(=O)c1noc(-c2cc(C(C)C)c(O)cc2O)c1-c1ccc(CN2CCOCC2)cc1 [Luminespib] (partner 0.01 µM)
In a few lines: (§1)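 Lung cancer cell lines were pin-tool dosed in 1536-well plates on the day after seeding, with either a lone drug or a fixed anchor-drug dose plus five library-drug doses (not always all listed) in √10 steps. Nuclei were counted on 4× images after 5 days. Relative viability is the ratio of treated-well to vehicle-well nuclei counts, with each value a median of duplicate plates.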

Compound in assay [2]: CC1(COc2ccc3c(c2)ncn3-c2ccc3cccc(N4CCC(N)CC4)c3n2)COC1 [Crenolanib] + Cc1nc(Nc2ncc(C(=O)Nc3c(C)cccc3Cl)s2)cc(N2CCN(CCO)CC2)n1 [Dasatinib] (partner 0.075 µM)
In a few lines:
as §1

Compound in assay [3]: CC1(COc2ccc3c(c2)ncn3-c2ccc3cccc(N4CCC(N)CC4)c3n2)COC1 [Crenolanib] + C[C@@H](Oc1cc(-c2cnn(C3CCNCC3)c2)cnc1N)c1c(Cl)ccc(F)c1Cl [Crizotinib] (partner 1 µM)
The method in brief:
as §1

Compound in assay [4]: CC1(COc2ccc3c(c2)ncn3-c2ccc3cccc(N4CCC(N)CC4)c3n2)COC1 [Crenolanib] + Nc1nc2[nH]cc(CCc3ccc(C(=O)N[C@@H](CCC(=O)O)C(=O)O)cc3)c2c(=O)[nH]1 [Pemetrexed] (partner 0.2 µM)
In a few lines:
as §1

For the cell line UMC-11, the relative viability was determined as 0.927 in assay [1] (first compound 0.01 µM); 1.02 in assay [1] (first compound 0.03162 µM); 0.928 in assay [1] (first compound 0.1 µM); 1.13 in assay [1] (first compound 0.3162 µM); 0.45 in assay [2] (first compound 0.01 µM); 0.52 in assay [2] (first compound 0.03162 µM). Besides, the relative viability in assay [2] (first compound 0.1 µM) was found to be 0.427; in assay [2] (first compound 0.3162 µM), 0.506; in assay [2] (first compound 1 µM), 0.481; in assay [3] (first compound 0.01 µM), 0.624; in assay [3] (first compound 0.03162 µM), 0.568; in assay [3] (first compound 0.1 µM) it was 0.674. Moreover, the relative viability turned out to be 0.804 in assay [3] (first compound 0.3162 µM); 0.606 in assay [3] (first compound 1 µM); 0.791 in assay [4] (first compound 0.01 µM); 0.755 in assay [4] (first compound 0.03162 µM); 0.738 in assay [4] (first compound 0.1 µM); 0.832 in assay [4] (first compound 0.3162 µM). For the same cell line, the relative viability in assay [4] (first compound 1 µM) was 0.741.
